This note sets out measurements from paper PMC4403932 (Journal of Medicinal Chemistry, 2015).

For orientation: Kd means the equilibrium constant for the complex coming apart. One may read the IC50 as the concentration that inhibits the measured activity by half.

“And” between values parts separate entries of the source, which are not always exact repeats. Equal values may be shown once. “Also recorded” adds a separate entry of the source.

The target of one test is T1, BRD2(1) (Homo sapiens, UniProt P25440).
T1 construct: Fragments were tested in a thermal shift assay against bromodomains of the BET subfamily; made in house
T1 sequence (P25440 74-180 limits assumed): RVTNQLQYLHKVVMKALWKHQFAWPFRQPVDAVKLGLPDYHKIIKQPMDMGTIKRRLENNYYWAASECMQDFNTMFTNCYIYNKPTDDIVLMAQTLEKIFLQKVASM
The test can be described thus: Isothermal titration calorimetry, BRD2(1). The format is binding. The following applies: for Kd / TΔS / ΔG / N (stoichiometry) / ΔHobs: ITC, 15 °C; for Kd: 50 mM HEPES pH 7.5, 150 mM NaCl, triplicate; for Kd / N (stoichiometry) / ΔHobs: reverse titration; for LE (ligand efficiency): LE = ΔG/N, N number of non-hydrogen atoms. The method, then:
(§1) Experiments were carried out on an ITC200 titration microcalorimeter from MicroCal, LLC (GE Healthcare) equipped with a Washing module, with a cell volume of 0.2003 mL, and a 40 μL microsyringe. Experiments were carried out at 15 °C while stirring at 1000 rpm, in ITC buffer (50 mM HEPES, pH 7.5 (at 25 °C), 150 mM NaCl). The microsyringe was loaded with a solution of the protein sample (300−740 μM protein for BRD9 and BRD4(1), respectively, in ITC buffer) and was carefully inserted into the calorimetric cell which was filled with an amount of the ligand (0.2 mL, 20–25 μM in ITC buffer). The system was first allowed to equilibrate until the cell temperature reached 15 °C, and an additional delay of 60 s was applied. All titrations were conducted using an initial control injection of 0.3 μL followed by 38 identical injections of 1 μL with a duration of 2 s (per injection) and a spacing of 120 s between injections. The titration experiments were designed in such a fashion as to ensure complete saturation of the proteins before the final injection. The heat of dilution for the proteins was independent of their concentration and corresponded to the heat observed from the last injection, following saturation of ligand binding, thus facilitating the estimation of the baseline of each titration from the last injection. The collected data were corrected for protein heats of dilution (measured on separate experiments by titrating the proteins into ITC buffer) and deconvoluted using the MicroCal Origin software supplied with the instrument to yield enthalpies of binding (ΔH) and binding constants (KB) in the same fashion as that previously described in detail by Wiseman and co-workers.[66] Thermodynamic parameters were calculated using the basic equation of thermodynamics (ΔG = ΔH – TΔS = −RT ln KB, where ΔG, ΔH, and ΔS are the changes in free energy, enthalpy, and entropy of binding, respectively). In all cases a single binding site model was employed, supplied with the MicroCal Origin software package.

For the next test, the target named is T2, BRD3(1) (Homo sapiens, UniProt Q15059).
T2 construct: Fragments were tested in a thermal shift assay against bromodomains of the BET subfamily; made in house
T2 sequence (Q15059 34-140 limits assumed): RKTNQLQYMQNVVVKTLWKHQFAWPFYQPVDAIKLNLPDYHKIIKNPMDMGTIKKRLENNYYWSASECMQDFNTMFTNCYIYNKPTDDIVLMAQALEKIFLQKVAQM
The test can be described thus: Isothermal titration calorimetry, BRD3(1). The test is classed as binding. The following applies: for LE (ligand efficiency): LE = ΔG/N, N number of non-hydrogen atoms. The method, then:
as §1
On the technique in general: Isothermal titration calorimetry measures the heat released or taken up as one component is titrated into another.

The next test deals with T3, BRDT(2) (Homo sapiens, UniProt Q58F21).
T3 construct: made in house
The experiment in a line: Protein stability (thermal) shift assay, BRDT(2). The following applies: compound 10 μM, protein 2 μM; average of triplicate; read-out: ΔTm Shift, BRDT(2). The test is classed as binding.

Another test has as its target T4, PB1(5) (Homo sapiens, UniProt Q86U86).
T4 construct: made in house
The test can be described thus: Protein stability (thermal) shift assay, PB1(5). The following applies: compound 10 μM, protein 2 μM; average of triplicate. The test is classed as binding.

A further test has as its target T5, BRD2(2) (Homo sapiens, UniProt P25440).
T5 construct: made in house
The test can be described thus: Protein stability (thermal) shift assay, BRD2(2). As to conditions: compound 10 μM, protein 2 μM; average of triplicate. The test is classed as binding.

Another test addresses T6, BRD4(2) (Homo sapiens, UniProt O60885).
T6 construct: made in house
The experiment in a line: Protein stability (thermal) shift assay, BRD4(2). The test is classed as binding. The following applies: compound 10 μM, protein 2 μM; average of triplicate.

The target in another test is T7, BRDT(1) (Homo sapiens, UniProt Q58F21).
T7 construct: made in house
The test can be described thus: Protein stability (thermal) shift assay, BRDT(1). The format is binding. As to conditions: compound 10 μM, protein 2 μM; average of triplicate.

In another test the target is T8, BRD9 bromodomain (Homo sapiens, UniProt Q9H8M2).
T8 construct: Q9H8M2-BRD amino acids 120–240; expressed in transfected cells; host or cells: HEK293
T8 sequence (Q9H8M2 120-240): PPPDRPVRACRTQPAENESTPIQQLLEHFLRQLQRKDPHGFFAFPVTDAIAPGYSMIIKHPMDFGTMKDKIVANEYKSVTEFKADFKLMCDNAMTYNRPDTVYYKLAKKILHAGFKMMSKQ
The test can be described thus: NanoBRET assay, NanoLuc-BRD9 bromodomain / histone H3.3-HaloTag in HEK293 cells. The format is cell-based. As to conditions: 0.005-33 μM, 18 h, read-out: cellular (apparent) IC50, displacement of NanoLuc-BRD9 bromodomain from histone H3.3. The method, then:
(§2) Twenty hours post-transfection 2 × 10^4 cells were trypsinized, washed with PBS, and exchanged into media containing phenol red-free DMEM, 10% FBS in the absence (control sample), or the presence (experimental sample) of 100 nM NanoBRET 618 fluorescent ligand (Promega). Cell density was adjusted to 2 × 10^5 cells/mL and then replated in a 96-well assay white plate (Corning Costar no. 3917). At the time of replating compound 7d or 11 were added at a final concentration spanning from 0.005 to 33 μM and the plates were incubated for 18 h at 37 °C in the presence of 5% CO2. NanoBRET substrate (Promega) was added to both control and experimental samples at a final concentration of 10 μM. Readings were performed within 5 min using the CLARIOstar reader (BMG Lifetechnologies) equipped with 450/80 nm bandpass and 610 nm long-pass filters. A corrected BRET ratio was calculated and is defined as the ratio of the emission at 610 nm/450 nm for experimental samples (i.e., those treated with NanoBRET fluorescent ligand) subtracted by and the emission at 610 nm/450 nm for control samples (not treated with NanoBRET fluorescent). BRET ratios are expressed as milliBRET units (mBU), where 1 mBU corresponds to the corrected BRET ratio multiplied by 1000.

The next test has as its target T9, full length BRD4 (Homo sapiens, UniProt O60885).
T9 construct: NanoLuc-fused full length BRD4 (UniProt code O60885); expressed in transfected cells; host or cells: HEK293
The test can be described thus: NanoBRET assay, NanoLuc-BRD4 full-length / histone H3.3-HaloTag in HEK293 cells. The test is classed as cell-based. The following applies: up to 33 μM, 18 h. How it is done:
as §2
(In general: Bioluminescence resonance energy transfer reports proximity on the nanometre scale.)

T4 sequence (Q86U86 653-763 limits assumed): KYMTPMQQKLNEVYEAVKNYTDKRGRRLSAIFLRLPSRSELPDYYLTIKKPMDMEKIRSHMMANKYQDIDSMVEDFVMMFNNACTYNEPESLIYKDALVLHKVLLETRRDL
T5 sequence (P25440 344-453 limits assumed): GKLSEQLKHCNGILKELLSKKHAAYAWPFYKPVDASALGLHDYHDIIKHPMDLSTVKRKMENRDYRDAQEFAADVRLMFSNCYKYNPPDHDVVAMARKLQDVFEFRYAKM

On to `COc1ccc(Br)cc1-c1nc(N)nc2[nH]cnc12` [Compound 7d, 2-Amino-6-(5-bromo-2-methoxyphenyl)-9H-purine], for which the dissociation constant (Kd) was determined as 4.44 ± 0.162 µM on BRD2(1) and 2.04 ± 0.105 µM at BRD3(1) (ITC, 50 mM HEPES pH 7.5, 150 mM NaCl, 15 °C, reverse titration, triplicate). Besides, the TΔS came out at 0.44 kcal/mol at BRD2(1) and 0.33 kcal/mol at BRD3(1) (ITC, 15 °C). Moreover, the ΔG result is “–7.06 kcal/mol” on BRD2(1) and “–7.50 kcal/mol” at BRD3(1) (ITC, 15 °C). The “N (stoichiometry)” value worked out at 0.99 ± 0.011 on BRD2(1) and 1.01 ± 0.009 at BRD3(1) (ITC, 15 °C, reverse titration). In addition, the ΔHobs result at BRD2(1) is “–6.62 ± 0.09 kcal/mol”; at BRD3(1) (ITC, 15 °C, reverse titration) it was “–7.17 ± 0.09 kcal/mol”. In addition, the “LE (ligand efficiency)” value at BRD2(1) is listed as 0.37; on BRD3(1), 0.39. The ΔTm at 10 µM amounted to 1.8 °C on BRDT(2); 1.6 °C on PB1(5); 0.9 °C on BRD2(2); 0.6 °C on BRD4(2); 0.0286 °C on BRDT(1). The IC50 on BRD9 bromodomain worked out at 3.5 µM. In addition, the “displacement of full-length BRD4 from histone H3.3 (in words)” value at full length BRD4 was “fail to elicit the same effect; also recorded: not completely displaced; also recorded: failing to displace”.
Consider `Nc1nc(-c2cc(Br)cc3c2OCC3)c2nc[nH]c2n1` [Compound 11, 2-Amino-6-(5-bromo-2,3-dihydrobenzo[b]furan-7-yl)-9H-purine], for which binding at BRD2(1) was put at a Kd of 1.42 ± 0.06 µM. Besides, the TΔS on BRD2(1) was found to be 2.06 kcal/mol; at BRD3(1) (ITC, 15 °C), 0.33 kcal/mol. Also, the ΔG entry at BRD2(1) was “–7.71 kcal/mol”; at BRD3(1) (ITC, 15 °C) it was “–7.50 kcal/mol”. Further, the “N (stoichiometry)” value on BRD2(1) was 1.02 ± 0.006; at BRD3(1) (ITC, 15 °C, reverse titration), 1.01 ± 0.009. Moreover, the ΔHobs entry was “–5.65 ± 0.04 kcal/mol” at BRD2(1) and “–7.17 ± 0.09 kcal/mol” on BRD3(1) (ITC, 15 °C, reverse titration). Also, the results for the “LE (ligand efficiency)” value at BRD2(1) and at BRD3(1) were 0.39 and 0.38, respectively. Moreover, the ΔTm at 10 µM at BRDT(2) came to 4 °C; on PB1(5) it was 0.8 °C; at BRD2(2) it was 4.3 °C; on BRD4(2), 2.8 °C; on BRDT(1), 1.7 °C. In addition, at BRD9 bromodomain, the IC50 is 0.48 µM and 0.477 µM. Further, the “displacement of full-length BRD4 from histone H3.3 (in words)” value on full length BRD4 is on record as “fail to elicit the same effect; also recorded: not completely displaced; also recorded: failing to displace”.
